# In patent publication US20020086895A1, “Methods of treating fungal infections” (priority 1985, published 2002):
# Where two headings read alike, the source gives them in different places.
# Columns and labels:
# [1] = tested on: Candida albicans strain #64, sensitive to fluconazole; test: Fluconazole-sensitive candidiasis in mice; format: in vivo
# Description: Immunocompetent mice (ICR, Sprague-Dawley, Indianapolis, Ind.) were infected with a pathogenic strain (strain #64) of Candida albicans which is sensitive to fluconazole. […] […] […] In addition, the organ fungal load (in CFU) was measured at day 30.
# [2] = tested on: Candida albicans (strain ATCC #90028); test: Inhibition of Candida spp. culture (XTT); format: cell-based; conditions: for C. albicans minimum inhibitory concentration (MIC) compared with reported ranges: assay validation
# Description: (§1) Candida albicans (strain ATCC #90028), Candida krusei (strain ATCC #90030), and Torulopsis (Candida) glabrata (strain ATCC #6258) were subcultured from cryopreserved stocks onto sabourand dextrose agar plates. Blastoconidia were suspended into RPMI-MOPS (media) and inoculated (500 cfu/well) into 96-well plates containing test compounds in a final volume of 100 μL/well. After 22 hours at 35° C., 25 μL of XTT (2,3-bis(2-methoxy-4-nitro-5-sulfophenyl)-5-[(phenylamino)carbonyl]-2H-tetrazolium hydroxide), (100 μg/mL) with PMS (phenazine methyl sulfate, 5 μM) were added to each well, followed by 2 hours of shaking. Growth was assessed spectrophotometrically by measuring the appearance of soluble formazan stain at 450 nm using an Emax microplate reader.
# [3] = tested on: Candida krusei (strain ATCC #90030); test: Inhibition of Candida spp. culture (XTT); format: cell-based; conditions: Pichia kudriavzevii, ATCC90030, C. krusei, 22 hours at 35° C., read-out: antifungal MIC
# Description: as §1
# [4] = tested on: Torulopsis (Candida) glabrata (strain ATCC #6258); test: Inhibition of Candida spp. culture (XTT); format: cell-based; conditions: T. (C.) glabrata, 22 hours at 35° C., read-out: antifungal MIC
# Description: as §1
# [5] = tested on: chitin synthase II (CS II); test: Inhibition of chitin synthase, CS II only; format: biochemical, C. albicans
# Description: Plasma membrane was purified from C. albicans (ATCC #90028) according to Orlean, J. Biol. Chem. 262:5732-5-1987. To minimize proteolysis during plasma membrane preparation, 1% fetal calf serum was incorporated into the homogenization buffer. Plasma membrane was activated by trypsin (125 μg/mg protein) in the presence of 1.5 mM UDP-GLcNAc(c) at 25° C. for 5 minutes. The reaction was stopped by the addition of soybean trypsin inhibitor. The activated membranes (0.125 mg membrane protein/mL) were […], 40 mM GlcNAc, 4 mM ^14C-UDP-GlcNAc (specific: 0.25 mCi/mmol) (New England Nuclear Boston, Mass.) and plant extract (100 μg/mL). The incubation was carried out at 37° C. for 1 hour and terminated with the addition of trichloroacetic acid (10%). The reaction mixture was transferred to a pre-wetted glass fiber filter. The filter was washed with 4×200 μL of a 7:3 solution of 95% EtOH and 1 M acetic acid. The filter was dried under a heat lamp and counted in a Microbeta counter (Wallac, Gaithersburg, Md.) after the addition of 25 μL OPTIPHASE SUPERMIX™ (Wallac) scintillation fluid. Nikkomycin Z and Polyoxin D were used as positive controls (Calbiochem, San Diego, Calif.). Vehicle control was carried out with the same amount of DMSO (2%).
# The SOP assay described above was modified to pH 7.5 and 5 mM MgCl2 (instead of CoCl2). […]
# [6] = tested on: C. albicans; test: Inhibition of C. albicans with drug combinations; format: cell-based, Candida albicans
# Description: as §1
# Formula (V) was tested in combination with known antifungal agents amphotericin B and fluconazole. A 10 mg/ml stock solution of formula (V) was diluted in 100% DMSO and stored at −80° C. Fluconazole and Amphotericin B were similarly prepared and stored as a 8 mg/ml stock solution, and a 1.25 mg/ml stock solution, respectively. Each known antifungal agent was added (2 μl/well), then 2 μl/well of the formula (V) solution was added to the designated wells. The remainder of the experiment follows Example 21.
# [7] = tested on: C. albicans UTR-14, fluconazole-resistant clinical isolate; test: Fluconazole-resistant candidiasis in mice; format: in vivo
# [8] = molecular target: T1, chitin synthase III (CS III) (Candida albicans, UniProt P30573); test: Inhibition of chitin synthase, CS III only; format: biochemical, C. albicans
# T1 construct: endogenous in cells
# Description: Plasma membrane was purified from C. albicans (ATCC #90028) according to Orlean, J. Biol. Chem. 262:5732-5-1987. To minimize proteolysis during plasma membrane preparation, 1% fetal calf serum was incorporated into the homogenization buffer. Plasma membrane was activated by trypsin (125 μg/mg protein) in the presence of 1.5 mM UDP-GLcNAc(c) at 25° C. for 5 minutes. The reaction was stopped by the addition of soybean trypsin inhibitor. The activated membranes (0.125 mg membrane protein/mL) were then assayed in a total of 50 μL reaction mixture containing 50 mM Tris-HCl (pH 8.0) 3 mM CoCl2, 40 mM GlcNAc, 4 mM ^14C-UDP-GlcNAc (specific: 0.25 mCi/mmol) (New England Nuclear Boston, Mass.) and plant extract (100 μg/mL). The incubation was carried out at 37° C. for 1 hour and terminated with the addition of trichloroacetic acid (10%). The reaction mixture was transferred to a pre-wetted glass fiber filter. The filter was washed with 4×200 μL of a 7:3 solution of 95% EtOH and 1 M acetic acid. The filter was dried under a heat lamp and counted in a Microbeta counter (Wallac, Gaithersburg, Md.) after the addition of 25 μL OPTIPHASE SUPERMIX™ (Wallac) scintillation fluid. Nikkomycin Z and Polyoxin D were used as positive controls (Calbiochem, San Diego, Calif.). Vehicle control was carried out with the same amount of DMSO (2%). […]
# [9] = tested on: A. funigatis ATCC8001; test: Inhibition of fungal growth, MIC scored visually; format: cell-based; conditions: Aspergillus fumigatus
# Description: (§2) Test compounds were tested against nine isolates in an eight-point dose response assay ranging from 50 μg/ml to 0.39 μg/ml. Aspergillus MIC's (minimum inhibitory concentrations) were scored visually after 48 and 72 hours at 37° C. […] Amphotericin B (2.5 μg/ml) and 5-flucytosine (2.0 μg ml) were standard controls for each antifungal assay. […] The results are shown below in Table 4, MIC values in μg/ml after 72 hours. HFF toxicity was analyzed after a 24 hour incubation at 37° C. (5% CO2). MTS/PMS was added, and the sample absorbance was read at 450 nm.
# [10] = tested on: A. niger; test: Inhibition of fungal growth, MIC scored visually; format: cell-based; conditions: Aspergillus niger
# Description: as §2
# [11] = tested on: C. tropicalis ATCC75O; test: Inhibition of fungal growth, MIC scored visually; format: cell-based; conditions: Candida tropicalis, 24 hour incubation at 35° C., read-out: Minimum Inhibitory Concentration
# Description: as §2
# [12] = tested on: A.funigatus 94-2766; test: Inhibition of fungal growth, MIC scored visually; format: cell-based; conditions: Aspergillus fumigatus, 942766
# Description: as §2
# [13] = tested on: C. glabrata (Fluconazole resistant); test: Inhibition of fungal growth, MIC scored visually; format: cell-based, Candida glabrata; conditions: Nakaseomyces glabratus; fluconazole resistant clinical isolate; 24 hour incubation at 35° C.; read-out: Minimum Inhibitory Concentration
# [14] = tested on: C. albicans ATCC90028; test: Inhibition of fungal growth, MIC scored visually; format: cell-based; conditions: Candida albicans, 24 hour incubation at 35° C., read-out: Minimum Inhibitory Concentration
# [15] = tested on: C. krusei ATCC6258; test: Inhibition of fungal growth, MIC scored visually; format: cell-based, Candida krusei; conditions: Pichia kudriavzevii, 24 hour incubation at 35° C., read-out: Minimum Inhibitory Concentration
# Description: as §2
# [16] = tested on: C. parapsilosis ATCC90018; test: Inhibition of fungal growth, MIC scored visually; format: cell-based, Candida parapsilosis; conditions: Lodderomyces parapsilosis, 24 hour incubation at 35° C., read-out: Minimum Inhibitory Concentration
# Description: as §2
# T1 sequence (P30573 whole entry): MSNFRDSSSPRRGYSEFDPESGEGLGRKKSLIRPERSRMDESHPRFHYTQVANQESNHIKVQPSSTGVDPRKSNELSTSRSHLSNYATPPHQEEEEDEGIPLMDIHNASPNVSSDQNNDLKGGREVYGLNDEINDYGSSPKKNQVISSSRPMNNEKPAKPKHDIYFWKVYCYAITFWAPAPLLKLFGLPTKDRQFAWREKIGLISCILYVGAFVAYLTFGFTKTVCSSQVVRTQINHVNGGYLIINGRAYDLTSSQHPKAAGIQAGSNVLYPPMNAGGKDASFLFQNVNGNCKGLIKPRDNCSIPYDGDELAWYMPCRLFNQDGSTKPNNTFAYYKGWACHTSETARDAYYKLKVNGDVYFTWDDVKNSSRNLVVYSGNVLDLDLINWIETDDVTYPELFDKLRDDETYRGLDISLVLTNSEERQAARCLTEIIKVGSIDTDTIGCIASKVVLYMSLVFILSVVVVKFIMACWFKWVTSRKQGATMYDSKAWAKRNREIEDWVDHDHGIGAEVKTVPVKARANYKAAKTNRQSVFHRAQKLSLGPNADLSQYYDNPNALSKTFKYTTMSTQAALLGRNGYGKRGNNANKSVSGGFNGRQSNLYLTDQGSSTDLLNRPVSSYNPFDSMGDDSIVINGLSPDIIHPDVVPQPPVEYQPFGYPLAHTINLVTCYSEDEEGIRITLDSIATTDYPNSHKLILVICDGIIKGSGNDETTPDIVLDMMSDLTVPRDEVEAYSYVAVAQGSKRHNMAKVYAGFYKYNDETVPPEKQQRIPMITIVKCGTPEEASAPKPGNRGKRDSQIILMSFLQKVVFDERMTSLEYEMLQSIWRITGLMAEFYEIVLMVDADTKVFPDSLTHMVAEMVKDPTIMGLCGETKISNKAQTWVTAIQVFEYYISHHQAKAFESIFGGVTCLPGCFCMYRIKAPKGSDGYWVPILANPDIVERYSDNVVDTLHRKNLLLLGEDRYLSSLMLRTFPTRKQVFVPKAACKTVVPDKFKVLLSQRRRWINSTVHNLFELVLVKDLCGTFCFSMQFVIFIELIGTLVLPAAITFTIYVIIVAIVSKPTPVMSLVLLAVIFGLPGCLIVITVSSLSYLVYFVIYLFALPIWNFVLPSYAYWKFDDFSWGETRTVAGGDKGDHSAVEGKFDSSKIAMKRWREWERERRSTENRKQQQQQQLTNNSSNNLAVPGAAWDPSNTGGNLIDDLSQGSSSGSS
compound,measurement,setting,value
"CC(C)=CCc1c(O)cc2c(c1O)C(=O)C(=Cc1ccc(O)c(O)c1)O2 [Formula (V), 5-prenylaureusidin]",percent survival after 30 days,"[1]; 20 mg per kg body weight i.p., once a day for 10 days",about 70%
same,percent survival after 30 days,"[1]; 40 mg per kg body weight p.o., once a day for 10 days",about 60%
same,fungal load reduction in each organ,[1]; day 30,over 99%
same,MIC,"[2]; Candida albicans, ATCC90028, C. albicans, XTT, 22 hours at 35° C., read-out: antifungal MIC",12.5 µg/mL
same,MIC,[3],6.25 µg/mL
same,MIC,[4],6.25 µg/mL
same,IC50,[5],223 µM
same,combination effect with Amphotericin B,[6]; in combination with Amphotericin B,apparent synergy
same,combination effect with fluconazole,[6]; in combination with fluconazole,apparent additivity
same,percent survival after 20 days,[7]; 40 mg per kg body weight p.o.,about 80%
same,IC50,[8],107 µM
"OC(Cn1cncn1)(Cn1cncn1)c1ccc(F)cc1F [fluconazole, reference compound]",percent survival after 30 days,"[1]; 40 mg per kg body weight, twice a day",about 30%
same,C. albicans minimum inhibitory concentration (MIC) compared with reported ranges,[2],within reported ranges
same,percent survival after 20 days,[7]; 40 mg per kg body weight p.o. (twice daily),0%
"C[C@@H]([C@H](N)C(=O)N[C@H](C(=O)O)[C@H]1O[C@@H](n2ccc(=O)[nH]c2=O)[C@H](O)[C@@H]1O)[C@H](O)c1ccc(O)cn1 [Nikkomycin Z, reference compound]",C. albicans minimum inhibitory concentration (MIC) compared with reported ranges,[2],within reported ranges
same,CS II remaining,"[5]; 10 μM Nikkomycin Z, pH 7.5, 5 mM MgCl2",75%
CC(C)(C)c1ccc(/C=C2\Oc3cc(O)cc(O)c3C2=O)cc1 [Formula S02],MIC,"[9]; ATCC8001, ATCC8001 (X2), value outside parentheses, read-out: Minimum Inhibitory Concentration",6.25 µg/mL
same,MIC,"[9]; ATCC8001, read-out: Minimum Inhibitory Concentration (value in parentheses), ATCC8001 (X2), value in parentheses, not defined (scored after 48 and 72 hours)",> 50 µg/mL
same,MIC,"[9]; ATCC8001, read-out: Minimum Inhibitory Concentration, ATCC8001 (X1), 37° C.",12.5 µg/mL
same,MIC,"[10]; clinical isolate, value outside parentheses, read-out: Minimum Inhibitory Concentration",> 50 µg/mL
same,MIC,"[10]; value in parentheses, not defined (scored after 48 and 72 hours), read-out: Minimum Inhibitory Concentration (value in parentheses)",> 50 µg/mL
same,MIC,[11],12.5 µg/mL
same,MIC,"[12]; 94-2766, value in parentheses, not defined (scored after 48 and 72 hours), read-out: Minimum Inhibitory Concentration (value in parentheses)",> 50 µg/mL
same,MIC,"[12]; 94-2766 clinical isolate, value outside parentheses, read-out: Minimum Inhibitory Concentration",6.25 µg/mL
same,MIC,[13],0.39 µg/mL
same,MIC,[14],12.5 µg/mL
same,MIC,[15],6.25 µg/mL
same,MIC,[16],6.25 µg/mL
